Results reported in ChEMBL document CHEMBL1201862, “PubChem BioAssay data set” (2004).
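Grown in 96-well plates, cells were treated for 48 hours with each compound at five concentrations. Insufficient inhibition: endpoint recorded as highest concentration tested. The concentration for 50% growth inhibition is given as GI50.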 The source made the active and inactive calls. Cut-off read from the data, not from the text of the source: active = GI50 up to about 1.1 µM and inactive = higher.

What was measured:
Assay in all cases: NCI tumour cell line growth inhibition, 48 h
[1] = tested on: SK-MEL-2
[2] = tested on: SF-268
[3] = tested on: LOX IMVI
[4] = tested on: DU-145
[5] = tested on: HCT-116
[6] = tested on: MCF7
[7] = tested on: SN12C
[8] = tested on: IGROV-1
[9] = tested on: HCC 2998
[10] = tested on: KM12
[11] = tested on: TK-10
[12] = tested on: MDA-MB-435
[13] = tested on: SNB-19
[14] = tested on: EKVX
[15] = tested on: SK-MEL-28
[16] = tested on: OVCAR-8
[17] = tested on: A498
[18] = tested on: SNB-75
[19] = tested on: CAKI-1
[20] = tested on: SNB-78

Compound	GI50 [1]	GI50 [2]	GI50 [3]	GI50 [4]	GI50 [5]	GI50 [6]	GI50 [7]	GI50 [8]	GI50 [9]	GI50 [10]	GI50 [11]	GI50 [12]	GI50 [13]	GI50 [14]	GI50 [15]	GI50 [16]	GI50 [17]	GI50 [18]	GI50 [19]	GI50 [20]
CC(=O)c1sc2c(c1OC(=O)c1ccc(Cl)cc1Cl)c(=O)n(-c1ccccc1)c(=S)n2-c1ccccc1	0.264 µM (active)	0.552 µM (active)	0.321 µM (active)	21.7 µM (inactive)	2.96 µM (inactive)	8.55 µM (inactive)	0.369 µM (active)	5.51 µM (inactive)	6.37 µM (inactive)	4.14 µM (inactive)	4.57 µM (inactive)	1 µM (active)	0.673 µM (active)	6.55 µM (inactive)	0.475 µM (active)	0.418 µM (active)	0.286 µM (active)	0.472 µM (active)	1.43 µM (inactive)	–
O=C1C(c2c(O)[nH]c3ccc([N+](=O)[O-])cc23)=Nc2ccccc21	43.5 µM (inactive)	> 100 µM (inactive)	> 100 µM (inactive)	> 100 µM (inactive)	> 100 µM (inactive)	57.1 µM (inactive)	> 100 µM (inactive)	10 µM (inactive)	> 100 µM (inactive)	> 100 µM (inactive)	34.6 µM (inactive)	> 100 µM (inactive)	49.8 µM (inactive)	> 100 µM (inactive)	> 100 µM (inactive)	> 100 µM (inactive)	98.2 µM (inactive)	13.8 µM (inactive)	> 100 µM (inactive)	–
COc1ccc(C(c2cc(OC)c(OC)c(OC)c2)N2C(=O)CCC2C(=O)O)cc1 (stereo not drawn)	46.8 µM (inactive)	> 100 µM (inactive)	66.8 µM (inactive)	> 100 µM (inactive)	35.5 µM (inactive)	62.4 µM (inactive)	> 100 µM (inactive)	84.5 µM (inactive)	50.2 µM (inactive)	35.6 µM (inactive)	> 100 µM (inactive)	21.8 µM (inactive)	44.9 µM (inactive)	> 100 µM (inactive)	51.1 µM (inactive)	41.8 µM (inactive)	77.1 µM (inactive)	59 µM (inactive)	79.6 µM (inactive)	–
CCNC(=O)Cc1nc2c(O)ncnc2n1C1OC(CO)C(O)C1O (stereo not drawn)	> 100 µM (inactive)	> 100 µM (inactive)	> 100 µM (inactive)	> 100 µM (inactive)	> 100 µM (inactive)	> 100 µM (inactive)	> 100 µM (inactive)	> 100 µM (inactive)	> 100 µM (inactive)	> 100 µM (inactive)	> 100 µM (inactive)	> 100 µM (inactive)	> 100 µM (inactive)	> 100 µM (inactive)	> 100 µM (inactive)	> 100 µM (inactive)	> 100 µM (inactive)	> 100 µM (inactive)	> 100 µM (inactive)	–
COc1cc(C)c2c(=O)c3ccccc3n(C)c2c1	36.4 µM (inactive)	30.5 µM (inactive)	17.4 µM (inactive)	33.2 µM (inactive)	18.5 µM (inactive)	28.2 µM (inactive)	20.7 µM (inactive)	26.9 µM (inactive)	45 µM (inactive)	23.9 µM (inactive)	40.9 µM (inactive)	40.8 µM (inactive)	34.8 µM (inactive)	35 µM (inactive)	32 µM (inactive)	22.6 µM (inactive)	26.5 µM (inactive)	26.4 µM (inactive)	31.3 µM (inactive)	–
CCOC(=O)c1cnc2[nH]c(=O)c3ccccc3n2c1=O	> 100 µM (inactive)	94.6 µM (inactive)	> 100 µM (inactive)	–	> 100 µM (inactive)	–	> 100 µM (inactive)	> 100 µM (inactive)	–	> 100 µM (inactive)	> 100 µM (inactive)	–	> 100 µM (inactive)	> 100 µM (inactive)	> 100 µM (inactive)	> 100 µM (inactive)	–	> 100 µM (inactive)	> 100 µM (inactive)	> 100 µM (inactive)
C=C/C=C/NC(=O)OCc1ccccc1	> 100 µM (inactive)	> 100 µM (inactive)	> 100 µM (inactive)	–	> 100 µM (inactive)	–	> 100 µM (inactive)	> 100 µM (inactive)	–	> 100 µM (inactive)	> 100 µM (inactive)	–	> 100 µM (inactive)	> 100 µM (inactive)	> 100 µM (inactive)	> 100 µM (inactive)	–	> 100 µM (inactive)	> 100 µM (inactive)	> 100 µM (inactive)
NC1=NS(=O)(=O)Nc2nc(-c3ccc(Cl)cc3)c(-c3ccc(Cl)cc3)nc21	–	> 100 µM (inactive)	29.3 µM (inactive)	–	> 100 µM (inactive)	–	> 100 µM (inactive)	> 100 µM (inactive)	> 100 µM (inactive)	> 100 µM (inactive)	> 100 µM (inactive)	–	> 100 µM (inactive)	–	> 100 µM (inactive)	> 100 µM (inactive)	–	> 100 µM (inactive)	> 100 µM (inactive)	> 100 µM (inactive)
O=C(O)Cc1ccc2nc(COC(=O)c3ccccc3)sc2c1	> 100 µM (inactive)	> 100 µM (inactive)	> 100 µM (inactive)	> 100 µM (inactive)	83.8 µM (inactive)	> 100 µM (inactive)	> 100 µM (inactive)	> 100 µM (inactive)	> 100 µM (inactive)	> 100 µM (inactive)	> 100 µM (inactive)	> 100 µM (inactive)	> 100 µM (inactive)	> 100 µM (inactive)	> 100 µM (inactive)	> 100 µM (inactive)	> 100 µM (inactive)	> 100 µM (inactive)	> 100 µM (inactive)	–
Cc1ccc2[nH]c3c(c2c1)C1CCC(C(C)(C)C)CC1C1C(=O)N(c2ccc(Oc4ccccc4)cc2)C(=O)C31 (stereo not drawn)	34.9 µM (inactive)	6.75 µM (inactive)	24.2 µM (inactive)	> 95.3 µM (inactive)	18.5 µM (inactive)	56.9 µM (inactive)	10.4 µM (inactive)	30.8 µM (inactive)	39.3 µM (inactive)	> 100 µM (inactive)	20 µM (inactive)	58.6 µM (inactive)	16.2 µM (inactive)	27 µM (inactive)	> 58.7 µM (inactive)	8.73 µM (inactive)	9.57 µM (inactive)	2.32 µM (inactive)	12.7 µM (inactive)	–
CCCCCC(CN1CCOCC1)C(=O)/C=C/c1ccccc1 (stereo not drawn)	–	1.94 µM (inactive)	1.37 µM (inactive)	–	1.75 µM (inactive)	–	2.94 µM (inactive)	3.37 µM (inactive)	2 µM (inactive)	1.76 µM (inactive)	–	–	3.43 µM (inactive)	10.4 µM (inactive)	5.82 µM (inactive)	–	–	7.13 µM (inactive)	–	6.9 µM (inactive)
C[C@H](Nc1nc(N)c(N=O)c(=O)n1C)C(=O)O	> 10 µM (inactive)	> 10 µM (inactive)	> 10 µM (inactive)	> 10 µM (inactive)	> 10 µM (inactive)	> 10 µM (inactive)	> 10 µM (inactive)	> 10 µM (inactive)	> 10 µM (inactive)	> 10 µM (inactive)	> 10 µM (inactive)	> 10 µM (inactive)	> 10 µM (inactive)	> 10 µM (inactive)	> 10 µM (inactive)	> 10 µM (inactive)	> 10 µM (inactive)	> 10 µM (inactive)	> 10 µM (inactive)	–
